# What was measured:
# physchem = conditions: water
# [1] = Rate of release and concentration of active ingredient from sealed cellulose film bags into deionized water, followed by ultraviolet spectroscopy; type: physicochemical; conditions: 1.28 g of 7% composition on Celite 545 in sealed 3-mil cellulose bag, 800 ml deionized water, complete release = 112 ppm
# Description: There was sealed in bags of 3-mil cellulose film (3.5 in.^2 surface area) 1.28 g. of each of the three compositions prepared in Example 1 containing compounds A, B, and C, respectively. For comparison, 1.28 g. of a 7% active ingredient solid composition of Kathon®886 (a 3:1 weight ratio blend of 5-chloro-2-methyl-3-isothiazolone and 2-methyl-3-isothiazolone with 15 weight % of Mg(NO3)2 and 9 weight % of MgCl2 in aqueous solution containing 14% active ingredient available from the Rohm and Haas Company) absorbed on Celite®545 was sealed in a bag of 3-mil cellulose film (3.5 in.^2 surface area). The rate of release and concentration of active ingredient from the sealed bags into 800 ml. of deionized water was followed by ultraviolet spectroscopy. Complete release of active ingredient from each sample would give 112 ppm.
# [2] = Release of active ingredient from solid Celite 545 composition stirred in deionized water, followed by ultraviolet spectroscopy; type: physicochemical; conditions: for time required to reach a saturated solution: solid composition on Celite 545 in deionized water; for Concentration in Solution at Elapsed Time: 1.28 g of 7% composition on Celite 545 in 800 ml deionized water, total release = 112 ppm
# Description: To 13.28 g. of Celite®545 in each of three glass bottles was added 1 g. of the following isothiazolones in 20 ml. of methanol:
# Each mixture was then stirred by hand with a spatula until it appeared to be uniformly mixed and free-flowing. Air drying, to remove methanol, affords solid product, 14.28 g., containing 7 weight % of active ingredient.
# 1.28 g. of each of the resulting solid microbiocidal compositions was stirred in 800 ml. of deionized water. The release of active ingredient was followed by analysis of the supernatant water by ultraviolet spectroscopy. Total release of active ingredient would give 112 ppm.
# [3] = Water solubility of the isothiazolones; conditions: for solubility: water
"solubility ([3]; Water Solubility, Example 1 table) [µg/mL]","solubility ([3]; Water Solubility, Example 3 table head) [µg/mL]",Compound,solubility (physchem) [µg/mL],Concentration/Rate of Release ([1]; 1 day) [ppm],Concentration/Rate of Release ([1]; 5 days) [ppm],time required to reach a saturated solution [2],Water Solubility ([3]; Example 3 table head) [ppm],solubility [3] [µg/mL],Concentration in Solution at Elapsed Time ([2]; 0.75 hr.) [ppm],Concentration in Solution at Elapsed Time ([2]; 3.0 hr.) [ppm],Concentration in Solution at Elapsed Time ([2]; 23.0 hr.) [ppm],Concentration in Solution at Elapsed Time ([2]; 66.0 hr.) [ppm]
,,"CCCCCCCCn1sccc1=O [A, 2-octyl-3-isothiazolone]",500,27,82,less than 1 hours,,,,,,
,,"CCCCCCCCn1sc(Cl)c(Cl)c1=O [Compound C, 4,5-dichloro-2-octyl-3-isothiazolone]",,0.4,1.7,,14,14,7,10,14,14
40,42,"O=c1c(Cl)c(Cl)sn1C1CCCCC1 [B, 4,5-dichloro-2-cyclohexyl-3-isothiazolone]",,5,11,1 to 3 h,,,27,39,,39
